Experimental data as given in US20160256460A1, “ACTIVATORS OR STIMULATORS OF SOLUBLE GUANYLATE CYCLASE FOR USE IN TREATING CHRONIC FATIGUE SYNDROME” (BERGEN TEKNOLOGIOVERFØRING AS, priority 2013, published 2016).

Tested on: ME/CFS patient
Test: Case report: oral riociguate (Adempas) in one ME/CFS patient
Assay type: in vivo, human
Method: It is understood that the examples illustrate the invention further without limiting the same. The patient is a person. They have had ME/CFS for 10 years, starting after a Giardia Lamblia infection. They have a disease severity varying between moderate and mild, but with moderate severity the last month prior to start of Riociguat. They have a typical ME/CFS and fulfils Canadian criteria. […] They started with only 0.5 mg once daily, gradually increasing to 0.5 two times daily after a few days and again to 0.5 mg three times daily on day six. […] The dose was increased to 1 mg+0.5 mg+1 mg starting from day seven and, in addition, starting from day nine increased to 1 mg three times daily. […] They told the clinicians of the improvement of their ME/CFS symptoms. They experienced this improvement to be significant and not within the usual range of symptom variation of their ME/CFS disease the last months.

COC(=O)N(C)c1c(N)nc(-c2nn(Cc3ccccc3F)c3ncccc23)nc1N [Riociguat, Methyl 4,6-diamino-2-[1-(2-fluorobenzyl)-1H-pyrazolo[3,4-b]pyridine-3-yl]-5-pyrimidinyl(methyl)carbamate]
ME/CFS symptom change reported by the patient (after the first six days, at a dose of 2.5 mg per day): more energy and less fatigue, less brain fog with an improved concentration ability, less hypersensitivity to sound and light, and less feeling of sore throat
benefit on the ME/CFS symptoms (person, moderate ME/CFS, oral 0.5 mg once daily increased to 0.5 mg three times daily on day six, noticed from day six, the next three days): benefit on the ME/CFS symptoms
side effects (same patient, dose increased up to 1 mg three times daily from day nine): no clear side effects
